Data published in US20070004660A1, “Synergistic Modulation of Flt3 Kinase Using Alkylquinolines and Alkylquinazolines” (priority 2005, published 2007).

Each molecule was assayed against T1, wild-type FLT3 receptor (Homo sapiens, UniProt P36888) (assay: Cell-based FLT3 receptor ELISA (FLT ligand-induced phosphorylation in Baf3 FLT3 cells)). Conditions: 100 ng/mL Flt ligand, uncertainty ±20%.
T1 construct: host or cells: Baf3 (murine B cell lymphoma line), stably transfected
T1 sequence (P36888 27-993): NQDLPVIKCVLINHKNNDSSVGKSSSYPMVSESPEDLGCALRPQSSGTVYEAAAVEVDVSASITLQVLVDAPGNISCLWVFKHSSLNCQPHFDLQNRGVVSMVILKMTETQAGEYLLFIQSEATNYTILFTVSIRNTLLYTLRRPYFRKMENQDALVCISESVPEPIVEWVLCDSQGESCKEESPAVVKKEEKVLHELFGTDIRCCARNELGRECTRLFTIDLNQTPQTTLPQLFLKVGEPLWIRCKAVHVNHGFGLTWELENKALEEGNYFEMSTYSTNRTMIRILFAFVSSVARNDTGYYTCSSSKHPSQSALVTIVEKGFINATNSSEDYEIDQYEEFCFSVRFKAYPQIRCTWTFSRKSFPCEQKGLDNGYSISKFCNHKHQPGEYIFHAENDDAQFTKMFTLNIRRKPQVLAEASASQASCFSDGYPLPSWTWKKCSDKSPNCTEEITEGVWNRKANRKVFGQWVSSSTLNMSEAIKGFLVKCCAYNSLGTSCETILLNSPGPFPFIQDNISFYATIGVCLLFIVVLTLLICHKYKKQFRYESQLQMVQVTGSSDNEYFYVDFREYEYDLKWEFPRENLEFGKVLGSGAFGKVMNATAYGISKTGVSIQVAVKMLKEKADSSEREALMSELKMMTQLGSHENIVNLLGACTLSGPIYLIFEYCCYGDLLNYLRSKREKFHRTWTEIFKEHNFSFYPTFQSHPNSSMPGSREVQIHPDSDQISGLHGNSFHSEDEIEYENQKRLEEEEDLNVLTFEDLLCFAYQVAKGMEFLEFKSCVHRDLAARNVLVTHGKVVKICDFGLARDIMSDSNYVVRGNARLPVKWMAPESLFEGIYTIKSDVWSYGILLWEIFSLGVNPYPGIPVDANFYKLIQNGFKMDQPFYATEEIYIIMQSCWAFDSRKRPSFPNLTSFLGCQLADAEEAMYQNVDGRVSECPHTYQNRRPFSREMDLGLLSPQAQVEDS
Outline: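 Receptor phosphotyrosine measured by sandwich ELISA (anti-FLT3 capture, HRP anti-pTyr, luminescence) in FLT3-transfected murine Baf3 cells given 1 h compound pretreatment and 10 min 100 ng/mL FLT ligand after overnight low-serum starvation; triplicates, IC50 from nonlinear regression.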
With `CC(C)c1ccc(NC(=O)N2CCC(c3ncnc4cc(Cl)ccc34)CC2)cc1` [Example 30, 4-(7-Chloro-quinazolin-4-yl)-piperidine-1-carboxylic acid (4-isopropyl-phenyl)-amide] the IC50 was 83 nM.
`CC(C)Oc1ccc(NC(=O)N2CCC(c3ncnc4cc(OCCN5CCCCC5)ccc34)CC2)cc1` [Example 34, 4-(7-(2-Piperindin-1-yl-ethoxy)-quinazolin-4-yl)-piperidine-1-carboxylic acid (4-isopropoxy-phenyl)-amide] showed an IC50 of 79 nM.
`O=C(Nc1ccc(N2CCCC2)cc1)N1CCC(c2ncnc3cc(N4CCOCC4)c(F)cc23)CC1` [Compound 210, 4-(6-Fluoro-7-morpholin-4-yl-quinazolin-4-yl)-piperidine-1-carboxylic acid (4-pyrrolidin-1-yl-phenyl)-amide] was tested, and the IC50 was 25 nM.
`COc1cc2c(C3CCN(C(=O)Nc4ccc(N5CCCC5)cc4)CC3)ncnc2cc1N1CCOCC1` [Compound 211, 4-(6-Methoxy-7-morpholin-4-yl-quinazolin-4-yl)-piperidine-1-carboxylic acid (4-pyrrolidin-1-yl-phenyl)-amide] gave an IC50 of 1 nM.
`COc1cc2ncnc(C3CCN(C(=O)Nc4ccc(N(C)C)cc4)CC3)c2cc1OC` [Example 26, 4-(6,7-Dimethoxy-quinazolin-4-yl)-piperidine-1-carboxylic acid (4-dimethylamino-phenyl)-amide] showed an IC50 of 109 nM.
With `COc1cc2c(C3CCN(C(=O)Nc4ccc(N5CCCC5)cc4)CC3)ncnc2cc1OCCN1CCCC1=O` [Compound 209, 4-{6-Methoxy-7-[2-(2-oxo-pyrrolidin-1-yl)-ethoxy]-quinazolin-4-yl}-piperidine-1-carboxylic acid (4-pyrrolidin-1-yl-phenyl)-amide] the IC50 was 37 nM.
Work on `COc1ccc2c(C3CCN(C(=O)Nc4ccc(OC(C)C)cc4)CC3)ncnc2c1` [Example 31, 4-(7-Methoxy-quinazolin-4-yl)-piperidine-1-carboxylic acid (4-isopropoxy-phenyl)-amide] yielded an IC50 of 55 nM.
Work on `CC(C)Oc1ccc(NC(=O)N2CCC(c3ncnc4cc(OCCCN5CCN(C)CC5)ccc34)CC2)cc1` [Example 39] yielded an IC50 of 8 nM.
`CCN(CC)CCOc1ccc2c(C3CCN(C(=O)Nc4ccc(OC(C)C)cc4)CC3)ncnc2c1` [Example 35, 4-[7-(2-Diethylamino-ethoxy)-quinazolin-4-yl)-piperidine-1-carboxylic acid (4-isopropoxy-phenyl)-amide] was tested, and the IC50 was 60 nM.
`COc1cc2c(C3CCN(C(=O)Nc4ccc(N5CCOCC5)cc4)CC3)ncnc2cc1OCCCN1CCN(C)CC1` [Compound 207, 4-{6-Methoxy-7-[3-(4-methyl-piperazin-1-yl)-propoxy]-quinazolin-4-yl}-piperidine-1-carboxylic acid (4-morpholin-4-yl-phenyl)-amide] was tested, and the IC50 was 42 nM.
For `CC(C)Oc1ccc(NC(=O)N2CCC(c3ncnc4cc(OCCCN5CCCCC5)ccc34)CC2)cc1` [Example 33, 4-(7-(3-Piperidin-1-yl-propoxy)-quinazolin-4-yl)-piperidine-1-carboxylic acid (4-isopropoxy-phenyl)-amide], the IC50 was 11 nM.
In the case of `COc1cc2ncnc(C3CCN(C(=O)Cc4ccc(C(C)C)cc4)CC3)c2cc1OC` [Example 28, 1-[4-(6,7-Dimethoxy-quinazolin-4-yl)-piperidin-1-yl]-2-(4-isopropyl-phenyl)-ethanone], the IC50 is reported as 2 nM.
`CCN(CC)CCCOc1ccc2c(C3CCN(C(=O)Nc4ccc(OC(C)C)cc4)CC3)ncnc2c1` [Example 36, 4-[7-(3-Diethylamino-propoxy)-quinazolin-4-yl)-piperidine-1-carboxylic acid (4-isopropoxy-phenyl)-amide] showed an IC50 of 18 nM.
`COc1cc2c(C3CCN(C(=O)Nc4ccc(N5CCOCC5)cc4)CC3)ncnc2cc1N1CCOCC1` [Compound 212, 4-(6-Methoxy-7-morpholin-4-yl-quinazolin-4-yl)-piperidine-1-carboxylic acid (4-morpholin-4-yl-phenyl)-amide] was tested, and the IC50 was 93 nM.
For `CC(C)Oc1ccc(NC(=O)N2CCC(c3ncnc4cc(OCCN5CCOCC5)ccc34)CC2)cc1` [Example 37], the IC50 was 51 nM.
Work on `COCCOc1ccc(NC(=O)N2CCC(c3ncnc4cc(OC)c(OC)cc34)CC2)cc1` [Example 40, 4-(6,7-Dimethoxy-quinazolin-4-yl)-piperidine-1-carboxylic acid [4-(2-methoxy-ethoxy)-phenyl]-amide] yielded an IC50 of 1500 nM.
For `COc1cc2ncnc(C3CCN(C(=O)Nc4ccc(-n5ccnc5)cc4)CC3)c2cc1OC` [Example 3, 4-(6,7-Dimethoxy-quinazolin-4-yl)-piperidine-1-carboxylic acid (4-imidazol-1-yl-phenyl)-amide], the IC50 was 938 nM.
`COc1cc2ncnc(C3CCN(C(=O)Nc4ccc(I)cc4)CC3)c2cc1OC` [Example 2, 4-(6,7-Dimethoxy-quinazolin-4-yl)-piperidine-1-carboxylic acid (4-iodo-phenyl)-amide] showed an IC50 of 890 nM.
`CC(C)Oc1ccc(NC(=O)N2CCC(c3ncnc4cc(OCCCN5CCOCC5)ccc34)CC2)cc1` [Example 38] gave an IC50 of 15 nM.
`COc1ccc2c(C3CCN(C(=O)Nc4ccc(C(C)C)cc4)CC3)ncnc2c1` [Example 32, 4-(7-Methoxy-quinazolin-4-yl)-piperidine-1-carboxylic acid (4-isopropyl-phenyl)-amide] showed an IC50 of 35 nM.
With `CC(C)Oc1ccc(NC(=O)N2CCC(c3ncnc4cc(Cl)ccc34)CC2)cc1` [Example 29, 4-(7-Chloro-quinazolin-4-yl)-piperidine-1-carboxylic acid (4-isopropoxy-phenyl)-amide] the IC50 was 50 nM.
With `COc1cc2ncnc(C3CCN(C(=O)Nc4ccc(NC(C)=O)cc4)CC3)c2cc1OC` [Example 25, 4-(6,7-Dimethoxy-quinazolin-4-yl)-piperidine-1-carboxylic acid (4-acetylamino-phenyl)-amide] the IC50 was greater than 10000 nM.
Work on `O=C1CCCN1CCOc1cc2ncnc(C3CCN(C(=O)Nc4ccc(N5CCCC5)cc4)CC3)c2cc1F` [Compound 206, 4-{6-Fluoro-7-[2-(2-oxo-pyrrolidin-1-yl)-ethoxy]-quinazolin-4-yl}-piperidine-1-carboxylic acid (4-pyrrolidin-1-yl-phenyl)-amide] yielded an IC50 of 22 nM.
